Measurements as given in article PMC12238723, “Phase I Clinical Trial of CVL218, a Novel PARP1/2 Inhibitor, in Patients with Advanced Solid Tumors” (MedComm, 2025).

System: patients with advanced solid tumors
Assay: Treatment-related adverse events (CTCAE v5.0), phase I dose escalation
Assay type: in vivo
Description: This study was a single‐arm, dose‐escalation phase I trial conducted in Sun Yat‐sen University Cancer Center in China. This study assessed CVL218 in patients with histologically or cytologically confirmed advanced solid tumors who were in PD after standard therapeutic regimens or lacked standard treatment options. Inclusion criteria included: age 18–75 years; with at least one measurable and evaluable target lesion per Response Evaluation Criteria in Solid Tumors 1.1 (RECIST 1.1); ECOG performance status of 0 or 1; adequate hematological, renal, cardiac, and hepatic functions and a life expectancy ≥12 weeks. Key exclusion criteria included prior usage of PARP inhibitors; allergic to the research drug or its components; with active, unstable systemic diseases or active, uncontrolled infection; a history of other malignancies within 5 years, and pregnant or lactating women.
CVL218 was administered orally, and this dose‐escalation trial included nine dose levels: 100 mg QD (50 mg BID), 200 mg QD (100 mg BID), 400 mg QD (200 mg BID), 700 mg QD (350 mg BID), 1000 mg QD (500 mg BID), 1200 mg QD (600 mg BID), 1400 mg QD (700 mg BID), 1700 mg QD (850 mg BID), and 2000 mg QD (1000 mg BID). Patients enrolled in the study received a single oral dose on the first day, followed by continuous multiple dosing (twice a day taking 12 h apart) after 72 h, with the treatment cycle lasting 4 weeks. The period during which patients received a single dose is designated as cycle 0 (C0), lasting 72 h. After this period, patients begin multiple dosing, referred to as cycle 1 (C1). An initial accelerated titration design was employed for the three lowest dose groups, and the “3+3” design was applied starting with the 300 mg BID cohort.
The primary objectives were to assess safety and tolerability as well as to determine the MTD, DLT, and dose recommended for further study. DLT was defined as any of the following events occurring during cycle 0 (including 72 h wash‐out period after a single dose) and cycle 1 per Common Terminology Criteria for Adverse Events (CTCAE) version 5.0: grade 4 anemia; grade 4 neutropenia; grade 3 neutropenia with fever ≥38.5°C; grade 4 thrombocytopenia; grade 3 thrombocytopenia associated with bleeding; grade ≥2 neurotoxicity; any other grade ≥3 nonhematological toxicities (excluding alopecia). The secondary objectives were to assess the PK and preliminary efficacy of CVL218.
Subjects who received at least one dose of CVL218 with postadministration safety records were included in safety analysis set. Subjects who received at least one dose of CVL218 with at least one evaluable PK parameter were included in PK analysis set. Per‐protocol set were used for efficacy analysis. Descriptive statistics of safety were presented per CTCAE v5.0. The PK parameters T max and T 1/2 were shown as the median (min, max) and mean ± SD, respectively. A two‐sided p < 0.05 was considered to indicate statistical significance. Statistical analysis was performed by using GraphPad prism 8.0.2 and R‐4.3.3.

For `CNCc1ccc(-c2cc3cc(F)cc(C(N)=O)c3o2)cc1.Cl` [CVL218], the Infusion site pain (50 mg BID, ALL) was 0 n (%), the WBC count increased (50 mg BID, ALL) was 0 n (%) and the ALT increased (50 mg BID, ≥G3) was 0 n (%). For the same molecule, the AST increased (50 mg BID, ≥G3) was 0 n (%), the Abdominal distension (50 mg BID, ≥G3) was 0 n (%) and the Abdominal pain (50 mg BID, ≥G3) was 0 n (%). The Abdominal pain upper (50 mg BID, ≥G3) was 0 n (%), the Amylase increased (50 mg BID, ≥G3) was 0 n (%) and the Anemia (50 mg BID, ≥G3) was 0 n (%). For the same molecule, the “Any AE related to study drug” value (50 mg BID, ≥G3) was 0 n (%), the Asthenia (50 mg BID, ≥G3) was 0 n (%) and the Blood creatinine increased (50 mg BID, ≥G3) was 0 n (%). The Blood system disorders (50 mg BID, ≥G3) was 0 n (%), the Blood triglycerides increased (50 mg BID, ≥G3) was 0 n (%) and the Blood urea increased (50 mg BID, ≥G3) was 0 n (%). For the same molecule, the Cardiac disorders (50 mg BID, ≥G3) was 0 n (%), the Chest discomfort (50 mg BID, ≥G3) was 0 n (%) and the Constipation (50 mg BID, ≥G3) was 0 n (%). The Decreased appetite (50 mg BID, ≥G3) was 0 n (%), the Diarrhea (50 mg BID, ≥G3) was 0 n (%) and the Dizziness (50 mg BID, ≥G3) was 0 n (%). The Erectile dysfunction (50 mg BID, ≥G3) was 0 n (%), the Gastrointestinal disorders (50 mg BID, ≥G3) was 0 n (%) and the General disorders (50 mg BID, ≥G3) was 0 n (%). For the same molecule, the Gingival bleeding (50 mg BID, ≥G3) was 0 n (%), the Granulocyte count increased (50 mg BID, ≥G3) was 0 n (%) and the Headache (50 mg BID, ≥G3) was 0 n (%). The Hypoalbuminemia (50 mg BID, ≥G3) was 0 n (%), the Infusion site pain (50 mg BID, ≥G3) was 0 n (%) and the Laboratory test disorders (50 mg BID, ≥G3) was 0 n (%). For the same molecule, the Limb discomfort (50 mg BID, ≥G3) was 0 n (%), the Lipase increased (50 mg BID, ≥G3) was 0 n (%) and the Metabolic disorders (50 mg BID, ≥G3) was 0 n (%). For the same molecule, the Musculoskeletal discomfort (50 mg BID, ≥G3) was 0 n (%), the Musculoskeletal disorders (50 mg BID, ≥G3) was 0 n (%) and the Nausea (50 mg BID, ≥G3) was 0 n (%). The Nervous system disorders (50 mg BID, ≥G3) was 0 n (%), the Neutrophil count decreased (50 mg BID, ≥G3) was 0 n (%) and the Neutrophil count increased (50 mg BID, ≥G3) was 0 n (%). For the same molecule, the Palpitations (50 mg BID, ≥G3) was 0 n (%), the Protein urine present (50 mg BID, ≥G3) was 0 n (%) and the Proteinuria (50 mg BID, ≥G3) was 0 n (%). For the same molecule, the Rash (50 mg BID, ≥G3) was 0 n (%), the “Renal & urinary disorders” value (50 mg BID, ≥G3) was 0 n (%) and the Renal failure (50 mg BID, ≥G3) was 0 n (%). For the same molecule, the Reproductive disorders (50 mg BID, ≥G3) was 0 n (%), the Skin disorders (50 mg BID, ≥G3) was 0 n (%) and the “Urinary occult blood positive” value (50 mg BID, ≥G3) was 0 n (%). For the same molecule, the Vomiting (50 mg BID, ≥G3) was 0 n (%), the WBC count decreased (50 mg BID, ≥G3) was 0 n (%) and the WBC count increased (50 mg BID, ≥G3) was 0 n (%). The Infusion site pain (100 mg BID, ALL) was 0 n (%), the WBC count increased (100 mg BID, ALL) was 0 n (%) and the ALT increased (100 mg BID, ≥G3) was 0 n (%). For the same molecule, the AST increased (100 mg BID, ≥G3) was 0 n (%), the Abdominal distension (100 mg BID, ≥G3) was 0 n (%) and the Abdominal pain (100 mg BID, ≥G3) was 0 n (%). The Abdominal pain upper (100 mg BID, ≥G3) was 0 n (%), the Amylase increased (100 mg BID, ≥G3) was 0 n (%) and the Anemia (100 mg BID, ≥G3) was 0 n (%). The “Any AE related to study drug” value (100 mg BID, ≥G3) was 0 n (%), the Asthenia (100 mg BID, ≥G3) was 0 n (%) and the Blood creatinine increased (100 mg BID, ≥G3) was 0 n (%). The Blood system disorders (100 mg BID, ≥G3) was 0 n (%), the Blood triglycerides increased (100 mg BID, ≥G3) was 0 n (%) and the Blood urea increased (100 mg BID, ≥G3) was 0 n (%). The Cardiac disorders (100 mg BID, ≥G3) was 0 n (%), the Chest discomfort (100 mg BID, ≥G3) was 0 n (%) and the Constipation (100 mg BID, ≥G3) was 0 n (%). The Decreased appetite (100 mg BID, ≥G3) was 0 n (%), the Diarrhea (100 mg BID, ≥G3) was 0 n (%) and the Dizziness (100 mg BID, ≥G3) was 0 n (%). For the same molecule, the Erectile dysfunction (100 mg BID, ≥G3) was 0 n (%), the Gastrointestinal disorders (100 mg BID, ≥G3) was 0 n (%) and the General disorders (100 mg BID, ≥G3) was 0 n (%). For the same molecule, the Gingival bleeding (100 mg BID, ≥G3) was 0 n (%), the Granulocyte count increased (100 mg BID, ≥G3) was 0 n (%) and the Headache (100 mg BID, ≥G3) was 0 n (%). The Hypoalbuminemia (100 mg BID, ≥G3) was 0 n (%), the Infusion site pain (100 mg BID, ≥G3) was 0 n (%) and the Laboratory test disorders (100 mg BID, ≥G3) was 0 n (%). For the same molecule, the Limb discomfort (100 mg BID, ≥G3) was 0 n (%), the Lipase increased (100 mg BID, ≥G3) was 0 n (%) and the Metabolic disorders (100 mg BID, ≥G3) was 0 n (%). For the same molecule, the Musculoskeletal discomfort (100 mg BID, ≥G3) was 0 n (%), the Musculoskeletal disorders (100 mg BID, ≥G3) was 0 n (%) and the Nausea (100 mg BID, ≥G3) was 0 n (%). For the same molecule, the Nervous system disorders (100 mg BID, ≥G3) was 0 n (%), the Neutrophil count decreased (100 mg BID, ≥G3) was 0 n (%) and the Neutrophil count increased (100 mg BID, ≥G3) was 0 n (%). For the same molecule, the Palpitations (100 mg BID, ≥G3) was 0 n (%), the Protein urine present (100 mg BID, ≥G3) was 0 n (%) and the Proteinuria (100 mg BID, ≥G3) was 0 n (%). The Rash (100 mg BID, ≥G3) was 0 n (%), the “Renal & urinary disorders” value (100 mg BID, ≥G3) was 0 n (%) and the Renal failure (100 mg BID, ≥G3) was 0 n (%). For the same molecule, the Reproductive disorders (100 mg BID, ≥G3) was 0 n (%), the Skin disorders (100 mg BID, ≥G3) was 0 n (%) and the “Urinary occult blood positive” value (100 mg BID, ≥G3) was 0 n (%). For the same molecule, the Vomiting (100 mg BID, ≥G3) was 0 n (%), the WBC count decreased (100 mg BID, ≥G3) was 0 n (%) and the WBC count increased (100 mg BID, ≥G3) was 0 n (%). For the same molecule, the Infusion site pain (200 mg BID, ALL) was 1 (100) n (%), the WBC count increased (200 mg BID, ALL) was 0 n (%) and the ALT increased (200 mg BID, ≥G3) was 0 n (%). The AST increased (200 mg BID, ≥G3) was 0 n (%), the Abdominal distension (200 mg BID, ≥G3) was 0 n (%) and the Abdominal pain (200 mg BID, ≥G3) was 0 n (%). For the same molecule, the Abdominal pain upper (200 mg BID, ≥G3) was 0 n (%), the Amylase increased (200 mg BID, ≥G3) was 0 n (%) and the Anemia (200 mg BID, ≥G3) was 0 n (%). For the same molecule, the “Any AE related to study drug” value (200 mg BID, ≥G3) was 0 n (%), the Asthenia (200 mg BID, ≥G3) was 0 n (%) and the Blood creatinine increased (200 mg BID, ≥G3) was 0 n (%). The Blood system disorders (200 mg BID, ≥G3) was 0 n (%), the Blood triglycerides increased (200 mg BID, ≥G3) was 0 n (%) and the Blood urea increased (200 mg BID, ≥G3) was 0 n (%). The Cardiac disorders (200 mg BID, ≥G3) was 0 n (%), the Chest discomfort (200 mg BID, ≥G3) was 0 n (%) and the Constipation (200 mg BID, ≥G3) was 0 n (%). The Decreased appetite (200 mg BID, ≥G3) was 0 n (%), the Diarrhea (200 mg BID, ≥G3) was 0 n (%) and the Dizziness (200 mg BID, ≥G3) was 0 n (%). For the same molecule, the Erectile dysfunction (200 mg BID, ≥G3) was 0 n (%), the Gastrointestinal disorders (200 mg BID, ≥G3) was 0 n (%) and the General disorders (200 mg BID, ≥G3) was 0 n (%). For the same molecule, the Gingival bleeding (200 mg BID, ≥G3) was 0 n (%) and the Granulocyte count increased (200 mg BID, ≥G3) was 0 n (%).
